The text below walks through data of patent US6465451B1, “Hypolipidemic benzothiazepine compounds” (SmithKline Beecham Corporation, priority 1998, dated 2002).

Series [1] deals with T1, ileal bile acid active uptake system (Rattus norvegicus, UniProt Q62633).
T1 construct: from tissue; host or cells: whole animal (rat ileum, in vivo)
T1 sequence (Q62633 1-348): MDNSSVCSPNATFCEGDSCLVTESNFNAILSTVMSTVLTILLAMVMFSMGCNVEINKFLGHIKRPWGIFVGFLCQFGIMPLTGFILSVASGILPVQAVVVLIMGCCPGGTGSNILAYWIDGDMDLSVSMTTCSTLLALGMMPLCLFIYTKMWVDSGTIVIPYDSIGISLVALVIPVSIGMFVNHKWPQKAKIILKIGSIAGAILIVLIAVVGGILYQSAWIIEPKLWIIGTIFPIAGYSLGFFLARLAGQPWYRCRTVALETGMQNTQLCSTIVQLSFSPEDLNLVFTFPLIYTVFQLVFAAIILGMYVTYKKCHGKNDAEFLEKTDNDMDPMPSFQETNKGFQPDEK
The experiment in a line: In vivo inhibition of bile acid reabsorption (75SeHCAT, rat). The conditions noted are these: male Spraque-Dawley rats, oral gavage twice daily for two days, fecal 75SeHCAT over 24 hours, n=12 total. The procedure: (I) In vivo Inhibition of Bile Acid Reabsorption
Male Spraque-Dawley rats (CD, Charles River) weighing 220-260 gm were housed in individual cages and fed normal chow. The rats were dosed by oral gavage (1 ml/100 gm body weight) with test compounds as a suspension in 0.5% methylcellulose at 9:00 a.m. and 3:30 p.m. for two days. The control group received 0.5% methylcellose. Two hours after the morning dose on day two, the rats were given a trace amount (1.3 nmoles) of 23,25−^75Se-homocholic acid taurine (^75SeHCAT) in 1.0 ml saline orally. ^75SeHCAT, a synthetic gamma emitting bile acid analog which is absorbed by the ileal bile acid active uptake system similar to taurocholic acid, has been used clinically as a measure of ileal bile acid absorption. Feces were collected over the 24 hours following ^75SeHCAT administration. Fecal content of ^75SeHCAT was determined using a Packard Auto-Gamma 5000 Series gamma-counter. The % inhibition of bile acid reabsorption is calculated as follows: [formula]
The percent of inhibition of bile acid reabsorption in the rat using ^75SeHCAT was used to determine the ED30 (the dose required to give 30% inhibition of bile acid uptake). […]

The next series relates to male Spraque-Dawley rats. The experiment in a line: Percent cholesterol lowering in rats fed a cholesterol-cholic acid enriched diet. Type of series: in vivo, rat. The conditions noted are these: gavage b.i.d. for 3 days and once on day four, hypercholesterolemic rats, serum lipids four hours after last dose. The procedure: (II) Percent Cholesterol Lowering in Rats
Hypercholesterolemia was induced in male Spraque-Dawley rats (CD, Charles River weighing 200-300 g) by administration of a diet enriched in cholesterol and cholic acid. The diet was prepared from Wayne Laboratory Lab Blocks ground into meal and mechanically mixed with powdered cholesterol and cholic acid to a final concentration (by weight) of 1% and 0.5%, respectively. Prior to administration of the diet, blood was collected under halothane anesthesia by cardiac puncture to determine baseline lipid levels. Serum was obtained for analysis of total cholesterol (TC), high density lipoprotein cholesterol (HDL-C), and dextran-precipitable lipoprotein-cholesterol (VLDL+LDL). The rats were divided into groups so that each group had similar baseline serum lipid levels. Five days following the initial sampling for serum lipids the rats were fed ab lib the cholesterol-cholic acid enriched diet and compound administration was begun. The compound was administered by gavage as a suspension in 0.5% methylcellulose (1 ml/100 g body weight) b.i.d. at 9:00 a.m. and 3:00 p.m. for 3 days and at 9:00 a.m. on day four. Control animals received 0.5% methylcellulose only. The rats were bleed four hours after the last dose for the determination of serum lipids. All blood collections were done after a 4-h fast. Serum TC concentrations were determined enzymatically using reagents obtained from Seragen Diagnostics (2). Serum HDL-C was determined after selective precipitation of VLDL and LDL with dextran sulfate and magnesium sulfate, with reagents from Seragen (3). HDL-C was determined in the supernatant. VLDL+LDL cholesterol was determined as the difference between total and HDL-C. The following results were obtained for Example 1 and Example A, as defined above.

In general, melting point refers to the temperature of the solid-liquid transition.

Structures are written as SMILES.

Regarding `CCCC[C@@]1(CC)CN(c2ccccc2)c2cc(Cl)c(O)cc2S(=O)(=O)C1` [Example 1, (3S)-2,3,4,5-Tetrahydro-3-ethyl-3-butyl-5-phenyl-7-chloro-8-hydroxy-1,5-benzothiazepine-1,1-dioxide], the melting point is 179.6 to 180.2 °C. For the same compound, the “ED30 (the dose required to give 30% inhibition of bile acid uptake)” value in series [1] turned out to be 0.048 mg/kg. Moreover, the Percent cholesterol lowering with male Spraque-Dawley rats (dose 0.03 mg/kg) was determined as 48%. This compound also returned a Percent cholesterol lowering in the series with male Spraque-Dawley rats (dose 0.1 mg/kg) of 56%. For the same compound, the Percent cholesterol lowering in the series with male Spraque-Dawley rats (dose 0.3 mg/kg) is reported as 81%.
With `CCCCC1(CC)CN(c2ccccc2)c2cc(Br)c(O)cc2S(=O)(=O)C1` (stereo not drawn) [Example A, 2,3,4,5-tetrahydro-3-ethyl-3-butyl-5-phenyl-7-bromo-8-hydroxy-1,5-benzothiazepine-1,1-dioxide, reference compound], in series [1], the “ED30 (the dose required to give 30% inhibition of bile acid uptake)” value stood at 0.17 mg/kg. Moreover, the Percent cholesterol lowering with male Spraque-Dawley rats (dose 0.03 mg/kg) worked out at 14%; with male Spraque-Dawley rats (dose 0.1 mg/kg), 17%; in the series with male Spraque-Dawley rats (dose 0.3 mg/kg) it was 53%.
